Measured values from patent publication US7138361B2, “Herbicidal heterocycles” (E. I. du Pont de Nemours and Company, priority 2000, dated 2006).

Legend:
Format in all cases: in vivo
Sunflower [1] = assay: Test C preemergence; conditions: Rate 250 g/ha, visual evaluation after 12 to 14 days
[2] = system: pigweed (Amaranthus retroflexus); assay: Test B postemergence; conditions: 13 to 15 days
Method in brief: (§1)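 Post-treatment, species sat 13–15 days under greenhouse conditions before visual scoring against controls, 0 (no effect) through 100 (complete control). Application preemergence to sown seeds or postemergence at 1- to 4-leaf stage, using a non-phytotoxic solvent/surfactant formulation.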

[3] = system: morning glory (Ipomoea hederacea); assay: Test B postemergence; conditions: 13 to 15 days
Method in brief: as §1

[4] = system: velvetleaf (Abutilon theophrasti); assay: Test B postemergence; conditions: 13 to 15 days
Method in brief: as §1

corn (Zea mays) [5] = assay: Test B postemergence; conditions: 13 to 15 days
Method in brief: as §1

[6] = system: giant foxtail (Setaria faberii); assay: Test B postemergence; conditions: 13 to 15 days
Method in brief: as §1

[7] = system: barnyardgrass (Echinochloa crus-galli); assay: Test B postemergence; conditions: 13 to 15 days
Method in brief: as §1

[8] = system: Surinam grass (Brachiaria decumbens); assay: Test B postemergence; conditions: 13 to 15 days
Method in brief: as §1

[9] = system: wheat (Triticum aestivum); assay: Test B postemergence; conditions: 13 to 15 days
Method in brief: as §1

[10] = system: cocklebur (Xanthium strumarium); assay: Test B postemergence; conditions: 13 to 15 days
Method in brief: as §1

wild oat (Avena fatua) = assay: Test B postemergence; conditions: 13 to 15 days
Method in brief: as §1

[11] = system: crabgrass (Digitaria sanguinalis); assay: Test B postemergence; conditions: 13 to 15 days
Method in brief: as §1

Nightshade = assay: Test C preemergence
[12] = system: johnsongrass (Sorghum halepense); assay: Test C preemergence; conditions: for Plant response rating (0 to 100), Johnsongrass: Rate 250 g/ha, visual evaluation after 12 to 14 days
Method in brief: (§2)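 Pre- and postemergence treatments used a non-phytotoxic solvent/surfactant formulation; post-treated plants measured 2 to 18 cm. Greenhouse hold 12–14 d; % control estimated visually relative to controls.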

[13] = system: common ragweed (Ambrosia elatior); assay: Test C preemergence; conditions: for Plant response rating (0 to 100), Ragweed, Common: Rate 250 g/ha, visual evaluation after 12 to 14 days
Method in brief: as §2

[14] = system: velvetleaf (Abutilon theophrasti); assay: Test C preemergence; conditions: for Plant response rating (0 to 100), Velvetleaf: Rate 250 g/ha, visual evaluation after 12 to 14 days
Method in brief: as §2

corn (Zea mays) [15] = assay: Test C preemergence; conditions: for Plant response rating (0 to 100), Corn: Rate 250 g/ha, visual evaluation after 12 to 14 days
Method in brief: as §2

[16] = system: yellow nutsedge (Cyperus esculentus); assay: Test C preemergence; conditions: for Plant response rating (0 to 100), Nutsedge: Rate 250 g/ha, visual evaluation after 12 to 14 days
Method in brief: as §2

[17] = system: goosegrass (Eleusine indica); assay: Test C preemergence; conditions: for Plant response rating (0 to 100), Goosegrass: Rate 250 g/ha, visual evaluation after 12 to 14 days
Method in brief: as §2

Sunflower [18] = assay: Test C preemergence; conditions: Rate 62 g/ha; scale 0 to 100, 0 no effect, 100 complete control
[19] = system: morningglory (Ipomoea hederacea); assay: Test C preemergence; conditions: for Plant response rating (0 to 100), Morningglory: Rate 250 g/ha, visual evaluation after 12 to 14 days
Method in brief: as §2

[20] = system: lambsquarters (Chenopodium album); assay: Test C preemergence; conditions: for Plant response rating (0 to 100), Lambsquarters: Rate 250 g/ha, visual evaluation after 12 to 14 days
Method in brief: as §2

[21] = Rate 125 g/ha, scale 0 (no effect) to 100 (complete control)
[22] = Rate 500 g/ha, scale 0 to 100, 0 is no effect, 100 is complete control
[23] = Rate 62 g/ha, scale 0 to 100, 0 no effect, 100 complete control
[24] = Rate 125 g/ha, scale 0 to 100, 0 no effect, 100 complete control
[25] = preemergence, Rate 31 g/ha, scale 0 to 100
[26] = preemergence, Rate 125 g/ha, scale 0 to 100, 0 no effect, 100 complete control

In the case of `CC(C)(C)c1ccn(C2CCN(c3ccc(Cl)c(Cl)c3)C2=O)n1` (stereo not shown) [Compound 34], the “Plant response rating (0 to 100), Sunflower” value (Sunflower [1]) is reported as 0, the “Plant response rating, Pigweed” value [2, 21] is reported as 90 and the “Plant response rating, Pigweed” value [2, 22] is reported as 90. For the same compound, the “Plant response rating, Morningglory” value [3, 21] was 0, the “Plant response rating, Morningglory” value [3, 22] was 0 and the “Plant response rating, Velvetleaf” value [4, 21] was 0. For the same compound, the “Plant response rating, Velvetleaf” value [4, 22] was 0, the “Plant response rating, Corn” value (corn (Zea mays) [5]; [21]) was 0 and the “Plant response rating, Corn” value (corn (Zea mays) [5]; [22]) was 0. The “Plant response rating, Foxtail, Giant” value [6, 21] was 0, the “Plant response rating, Foxtail, Giant” value [6, 22] was 0 and the “Plant response rating, Barnyardgrass” value [7, 21] was 0. For the same compound, the “Plant response rating, Barnyardgrass” value [7, 22] was 0, the “Plant response rating, Surinam grass” value [8, 21] was 0 and the “Plant response rating, Surinam grass” value [8, 22] was 0. For the same compound, the “Plant response rating, Wheat” value [9, 21] was 0, the “Plant response rating, Wheat” value [9, 22] was 0 and the “Plant response rating, Cocklebur” value [10, 21] was 0. The “Plant response rating, Cocklebur” value [10, 22] was 0, the “Plant response rating, Wild Oat” value (wild oat (Avena fatua); [21]) was 0 and the “Plant response rating, Wild Oat” value (wild oat (Avena fatua); [22]) was 0. The “Plant response rating, Crabgrass” value [11, 21] was 0, the “Plant response rating, Crabgrass” value [11, 22] was 0 and the “Plant response rating, Nightshade” value (Nightshade; Rate 31 g/ha, scale 0 to 100) was 0. For the same compound, the “Plant response rating, Nightshade” value (Nightshade; [23]) was 0, the “Plant response rating, Nightshade” value (Nightshade; [24]) was 0 and the “Plant response rating, Johnsongrass” value [12, 23] was 0. For the same compound, the “Plant response rating, Johnsongrass” value [12, 25] was 0, the “Plant response rating (0 to 100), Johnsongrass” value ([12]; preemergence) was 0 and the “Plant response rating, Johnsongrass” value [12, 26] was 0. The “Plant response rating, Ragweed, Common” value [13, 23] was 0, the “Plant response rating, Ragweed, Common” value [13, 25] was 0 and the “Plant response rating (0 to 100), Ragweed, Common” value ([13]; preemergence) was 0. The “Plant response rating, Ragweed, Common” value [13, 26] was 0, the “Plant response rating, Velvetleaf” value [14, 23] was 0 and the “Plant response rating, Velvetleaf” value [14, 25] was 0. The “Plant response rating (0 to 100), Velvetleaf” value ([14]; preemergence) was 0, the “Plant response rating, Velvetleaf” value [14, 26] was 0 and the “Plant response rating, Corn” value (corn (Zea mays) [15]; [23]) was 0. For the same compound, the “Plant response rating, Corn” value (corn (Zea mays) [15]; [25]) was 0, the “Plant response rating (0 to 100), Corn” value (corn (Zea mays) [15]; preemergence) was 0 and the “Plant response rating, Corn” value (corn (Zea mays) [15]; [26]) was 0. The “Plant response rating, Nutsedge” value [16, 23] was 0, the “Plant response rating, Nutsedge” value [16, 25] was 0 and the “Plant response rating (0 to 100), Nutsedge” value ([16]; preemergence) was 0. For the same compound, the “Plant response rating, Nutsedge” value [16, 26] was 0, the “Plant response rating, Goosegrass” value [17, 23] was 80 and the “Plant response rating, Goosegrass” value [17, 25] was 20. For the same compound, the “Plant response rating (0 to 100), Goosegrass” value ([17]; preemergence) was 100, the “Plant response rating, Goosegrass” value [17, 26] was 80 and the “Plant response rating, Sunflower” value (Sunflower [18]) was 0. For the same compound, the “Plant response rating, Morningglory” value [19, 23] was 0, the “Plant response rating, Morningglory” value [19, 25] was 0 and the “Plant response rating (0 to 100), Morningglory” value ([19]; preemergence) was 0. For the same compound, the “Plant response rating, Morningglory” value [19, 26] was 0, the “Plant response rating, Lambsquarters” value [20, 23] was 90 and the “Plant response rating, Lambsquarters” value [20, 25] was 90. For the same compound, the “Plant response rating (0 to 100), Lambsquarters” value ([20]; preemergence) was 100 and the “Plant response rating, Lambsquarters” value [20, 26] was 100.
`CC(C)(C)c1ccn(C2SCN(c3cccc(OC(F)F)c3)C2=O)n1` (stereo not shown) [Compound 36] was tested, and the “Plant response rating (0 to 100), Sunflower” value (Sunflower [1]) was 30, the “Plant response rating, Pigweed” value [2, 21] was 90 and the “Plant response rating, Pigweed” value [2, 22] was 100. For the same compound, the “Plant response rating, Morningglory” value [3, 21] was 30, the “Plant response rating, Morningglory” value [3, 22] was 40 and the “Plant response rating, Velvetleaf” value [4, 21] was 0. For the same compound, the “Plant response rating, Velvetleaf” value [4, 22] was 60, the “Plant response rating, Corn” value (corn (Zea mays) [5]; [21]) was 0 and the “Plant response rating, Corn” value (corn (Zea mays) [5]; [22]) was 70. For the same compound, the “Plant response rating, Foxtail, Giant” value [6, 21] was 60, the “Plant response rating, Foxtail, Giant” value [6, 22] was 90 and the “Plant response rating, Barnyardgrass” value [7, 21] was 90. The “Plant response rating, Barnyardgrass” value [7, 22] was 100, the “Plant response rating, Surinam grass” value [8, 21] was 0 and the “Plant response rating, Surinam grass” value [8, 22] was 50. For the same compound, the “Plant response rating, Wheat” value [9, 21] was 0, the “Plant response rating, Wheat” value [9, 22] was 0 and the “Plant response rating, Cocklebur” value [10, 21] was 20. The “Plant response rating, Cocklebur” value [10, 22] was 60, the “Plant response rating, Wild Oat” value (wild oat (Avena fatua); [21]) was 0 and the “Plant response rating, Wild Oat” value (wild oat (Avena fatua); [22]) was 20. The “Plant response rating, Crabgrass” value [11, 21] was 80, the “Plant response rating, Crabgrass” value [11, 22] was 100 and the “Plant response rating, Nightshade” value (Nightshade; Rate 31 g/ha, scale 0 to 100) was 0. The “Plant response rating, Nightshade” value (Nightshade; [23]) was 30, the “Plant response rating, Nightshade” value (Nightshade; [24]) was 50 and the “Plant response rating, Johnsongrass” value [12, 23] was 90. The “Plant response rating, Johnsongrass” value [12, 25] was 50, the “Plant response rating (0 to 100), Johnsongrass” value ([12]; preemergence) was 100 and the “Plant response rating, Johnsongrass” value [12, 26] was 90. For the same compound, the “Plant response rating, Ragweed, Common” value [13, 23] was 0, the “Plant response rating, Ragweed, Common” value [13, 25] was 0 and the “Plant response rating (0 to 100), Ragweed, Common” value ([13]; preemergence) was 50. The “Plant response rating, Ragweed, Common” value [13, 26] was 30, the “Plant response rating, Velvetleaf” value [14, 23] was 0 and the “Plant response rating, Velvetleaf” value [14, 25] was 0. The “Plant response rating (0 to 100), Velvetleaf” value ([14]; preemergence) was 40, the “Plant response rating, Velvetleaf” value [14, 26] was 0 and the “Plant response rating, Corn” value (corn (Zea mays) [15]; [23]) was 20. For the same compound, the “Plant response rating, Corn” value (corn (Zea mays) [15]; [25]) was 0, the “Plant response rating (0 to 100), Corn” value (corn (Zea mays) [15]; preemergence) was 80 and the “Plant response rating, Corn” value (corn (Zea mays) [15]; [26]) was 40. The “Plant response rating, Nutsedge” value [16, 23] was 0, the “Plant response rating, Nutsedge” value [16, 25] was 0 and the “Plant response rating (0 to 100), Nutsedge” value ([16]; preemergence) was 30. For the same compound, the “Plant response rating, Nutsedge” value [16, 26] was 30, the “Plant response rating, Goosegrass” value [17, 23] was 100 and the “Plant response rating, Goosegrass” value [17, 25] was 90. The “Plant response rating (0 to 100), Goosegrass” value ([17]; preemergence) was 100, the “Plant response rating, Goosegrass” value [17, 26] was 100 and the “Plant response rating, Sunflower” value (Sunflower [18]) was 0. For the same compound, the “Plant response rating, Morningglory” value [19, 23] was 0, the “Plant response rating, Morningglory” value [19, 25] was 0 and the “Plant response rating (0 to 100), Morningglory” value ([19]; preemergence) was 50. For the same compound, the “Plant response rating, Morningglory” value [19, 26] was 0, the “Plant response rating, Lambsquarters” value [20, 23] was 100 and the “Plant response rating, Lambsquarters” value [20, 25] was 100. The “Plant response rating (0 to 100), Lambsquarters” value ([20]; preemergence) was 100 and the “Plant response rating, Lambsquarters” value [20, 26] was 100.
